According to patent US4801616A, “Diphenylmethanone compounds and anti-inflammatory use thereof” (Eli Lilly and Company, priority 1986, dated 1989):

Legend:
[1] = target: T1, 5-lipoxygenase (Cavia porcellus, UniProt A0A286X958); assay: 5-Lipoxygenase (5-LPO) Assay, inhibition of 5-HETE formation in PMNL sonicate supernatant; type: biochemical, guinea pig; conditions: for inhibition at 30 µg/mL: percent inhibition at 30 μg/ml
T1 construct: incubating 0.2 ml of the supernatant obtained from the PMNL sonicate with the test compound; from tissue; host or cells: casein-elicited guinea pig peritoneal polymorphonuclear leukocytes (PMNL, more than 95 percent of the cells), sonicated, 30,000 x g supernatant
T1 sequence (A0A286X958 1-674): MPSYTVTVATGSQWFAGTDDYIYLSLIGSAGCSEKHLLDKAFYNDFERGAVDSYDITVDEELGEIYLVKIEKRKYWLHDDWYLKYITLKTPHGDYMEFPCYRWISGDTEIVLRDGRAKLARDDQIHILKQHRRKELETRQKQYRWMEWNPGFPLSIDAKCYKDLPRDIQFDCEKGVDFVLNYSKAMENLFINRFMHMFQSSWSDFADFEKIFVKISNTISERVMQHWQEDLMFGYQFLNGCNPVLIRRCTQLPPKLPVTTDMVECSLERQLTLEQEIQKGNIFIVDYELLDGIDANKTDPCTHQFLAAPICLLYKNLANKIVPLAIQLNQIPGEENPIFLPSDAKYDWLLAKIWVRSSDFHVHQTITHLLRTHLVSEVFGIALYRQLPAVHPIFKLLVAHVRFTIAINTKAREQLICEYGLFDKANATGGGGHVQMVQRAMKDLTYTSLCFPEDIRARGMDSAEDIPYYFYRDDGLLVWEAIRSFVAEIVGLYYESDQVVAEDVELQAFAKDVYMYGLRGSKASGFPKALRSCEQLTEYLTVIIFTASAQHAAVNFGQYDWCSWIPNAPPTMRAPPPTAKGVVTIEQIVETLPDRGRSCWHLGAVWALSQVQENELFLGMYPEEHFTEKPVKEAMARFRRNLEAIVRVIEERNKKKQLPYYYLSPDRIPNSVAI
Protocol: 5-Lipoxygenase (5-LPO) Assay
Ten milliliters of a 2% casein solution were injected intraperitoneally into guinea pigs weighing 250-300 gm. After 16-18 hours, the guinea pigs were killed by suffocation in a carbon dioxide chamber. The peritoneal cavity was infused with 70 ml of saline and 40-50 ml of the fluid were recovered from the cavity. After centrifugation, cell pellets were washed twice in Hank's balanced salt solution (HBSS) without calcium ion.
The cells were then suspended in 5 ml of sodium phosphate buffer, pH 7.1 containing 1 mM EDTA, and 0.1% gelatin. About 20-30×10^7 cells were obtained from one guinea pig.
The PMNL suspension was disrupted by five 1/2 second pulse sonications at the setting of 3 in a Branson Sonifier, Model 350, equipped with a microtip. The sonicates were combined and centrifuged at 30,000× g for 10 minutes. The supernatant was kept frozen at -70° C. until use.
Enzyme activity was determined by assaying for 5-HETE formation by first incubating 0.2 ml of the supernatant obtained from the PMNL sonicate with the test compound, 1 mM CaCl2, 2 mM ATP, and 1 mM GSH for 5 minutes at 37° C. The mixture is treated with 5 μM ^14 C-arachidonicacid and incubated at 37° C. an additional 10 minutes. The enzyme reaction was then stopped by the addition of 10 μl of 1M citric acid and 10μl of an alcohol solution containing 20 mg/ml each of indomethacin and butylated hydroxyanisole (BHA). The reaction mixture was spotted (50 μl on a silica gel plate (Baker TLC plate S1250-PA-19C) and subjected to TLC in a solvent system of ethyl acetate/2,2,4-trimethylpentane/glacial acetic acid/water (90:50:20:100).
The radioactivity of the arachidonic acid and its metabolites (5-HETE and LTB4) was visualized from a developed x-ray film which had been exposed to the TLC plate 1-2 days. The amount of 5-HETE formed was quantitated by scraping the silica gel area corresponding to the spot on the x-ray film, and the radioactivity determined in a Isocap/300 liquid scintillation counter (Searle Analytic, Inc.).
The percent inhibition of the formation of 5-HETE was determined for each concentration of test compound tested as compared to a control experiment wherein no test compound was added. The concentration and percent inhibition values were plotted on semi log paper and the concentration in which formation of 5-HETE is inhibited by 50% (IC50) was determined by interpolation.

[2] = target: T2, fatty acid cyclooxygenase (Homo sapiens, UniProt P23219); assay: Fatty Acid Cyclooxygenase (FCO) Assay, inhibition of PGE2 formation by purified human platelet enzyme; type: biochemical; conditions: for IC50: human platelet microsomal enzyme, pH 8.0, 37° C.; for inhibition at 30 µg/mL: percent inhibition at 30 μg/ml
T2 construct: The solubilized fatty acid cyclooxygenase was applied to a 440 ml electrofocusing column; from tissue; host or cells: human platelets: microsomes solubilized with Triton X-100, purified by electrofocusing and G-200 Sephadex
Protocol: Fatty Acid Cyclooxygenase (FCO) Assay
Microsomes were prepared from 185 bags of human platelets (each bag containing the platelets from one pint of blood prepared using differential centrifugation procedures). The platelets from approximately 60 bags were prepared at one time. Platelet-rich plasma (500 g) was centrifuged at 10,000×g for 20 minutes, and the platelet pellet was suspended in 100 ml of 0.1M potassium phosphate buffer, pH 8.0, with a Teflon glass homogenizer and sonicated for 5.0 minutes with a Bronson Sonifier (Model 350) in a rosette flask cooled in ice water. Disrupted platelets were centrifuged 15 minutes at 10,000× g. The supernatant was centrifuged at 100,000× g for 90 minutes and the microsomal pellets were homogenized in 25 ml of 20% sucrose containing 1.0% Triton X-100 detergent. After 30 minutes at 4° C., the solubilized microsomes were centrifuged at 100,000× g for 60 minutes. The yellow supernatant was removed and stored at -70 ° C.
The solubilized fatty acid cyclooxygenase was applied to a 440 ml electrofocusing column (LKB-8012) containing 1% phisolytes (Brinkman Instruments, Westburgh, NY), pH 2-11, with the cathode at the top of the column. The enzyme was layered onto the column at the appropriate time so that its sucrose concentration was equal to that of the column gradient. This was accomplished by checking the gradient concentration periodically with a sucrose hand refractometer. Electrofocusing was carried out for 16 hours with an initial voltage of 400 V and a final voltage of 900-1,000 volts. Fractions were collected (20 ml) and assayed for PGE2 formation. Active peak fractions were pooled and concentrated by ultrafiltration (XM 100A) to a volume of 3-5 ml.
Active fractions from electrofocusing were applied to a G-200 Sephadex column (2 cm×46 cm) and eluted with 10 mM potassium phosphate buffer, pH 7.0, in 5 ml fractions. After assay, active fractions were poored and concentrated to 1.0 ml by ultrafiltration (XM 100A), and kept frozen at -70° C.
Enzyme activity was determined by assaying for PGE2 formation by preincubating the enzyme with 10 mmol/l imidazole phosphate buffer, pH 8.0, 2 mmol/l epinephrine, 2 mmol/l methemoglobin, and the test compound (30 μg/ml) in a total volume of 0.2 ml for one minute at 37° C. After preincubation, 5 mmol/l ^14 C-arachidonic acid were added and the mixture was incubated an additional 0.5 minutes at 37° C. The enzyme reaction was stopped by the addition of 2 μl of indomethacin (2 mg/ml) in alcohol.
The reaction mixture was spotted (50 μl) on a silica gel (LQ6D) plate and subjected to TLC. The solvent system consisted of chloroform-methanol-glacial acetic acid (90:5:5, v/v/v) and the relative mobilities were PGF2α =0.235, and PGE2 =0.47. The silica gel on the plate was scraped in 1 cm sections, suspended in 5 ml of the scintillation fluid [5.88 g of 2,5-diphenyloxazole and 118 mg of 1,4 -bis(5-phenyloxazol-2-yl)benzene] dissolved in 650 ml of toluene and 350 ml of Triton X-100) and the radioactivity was determined in an Isocap/300 liquid scintillation counter (Searle Analytic, Inc., Southfield, Mich.). Another 50 μl of the mixture was added to 10 ml of the Triton X-100 based scintillation fluid, and the radioactivity was determined so that the amount of radioactivity recovery from the TLC plate could be ascertained. PGE2 formation for each test compound was determined as a percent of control experiments wherein no test compound was added. Data is expressed in Table I either as the percent inhibition of formation of PGE2 at a test compound concentration of 30 μ g/ml, or as an IC50 for inhibition of PGE2 formation.

[3] = guinea pig PMNL sonicate supernatant, 37° C., 5 μM 14C-arachidonic acid

T2 sequence (P23219 24-599): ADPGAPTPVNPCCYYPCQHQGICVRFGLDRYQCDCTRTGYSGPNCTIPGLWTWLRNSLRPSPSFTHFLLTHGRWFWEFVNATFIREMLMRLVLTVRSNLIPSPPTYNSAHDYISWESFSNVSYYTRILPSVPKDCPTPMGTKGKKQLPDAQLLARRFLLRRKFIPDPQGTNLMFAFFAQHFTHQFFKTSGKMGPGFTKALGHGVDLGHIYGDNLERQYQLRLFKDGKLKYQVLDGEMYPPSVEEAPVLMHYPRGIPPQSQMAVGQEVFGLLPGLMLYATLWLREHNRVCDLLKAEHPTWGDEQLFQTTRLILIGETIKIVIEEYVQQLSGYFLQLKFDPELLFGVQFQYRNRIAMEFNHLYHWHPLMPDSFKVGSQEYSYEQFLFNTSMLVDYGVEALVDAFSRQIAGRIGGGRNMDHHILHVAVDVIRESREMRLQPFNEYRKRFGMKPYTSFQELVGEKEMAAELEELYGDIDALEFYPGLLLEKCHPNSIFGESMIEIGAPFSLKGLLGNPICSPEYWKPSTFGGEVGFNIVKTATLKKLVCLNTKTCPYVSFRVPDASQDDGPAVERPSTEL

CCCc1c(OC)ccc(C(=O)c2ccccc2OC)c1OC [Example 1, (2,4-Dimethoxy-3-propylphenyl)(2-methoxyphenyl)methanone]
IC50 [1, 3]: 0.954 µM
IC50 [2]: 17.5 µM

CCCc1c(OC)ccc(C(=O)c2ccccc2O)c1OC [Example 2, (2,4-Dimethoxy-3-propylphenyl)(2-hydroxyphenyl)methanone]
IC50 [1, 3]: 2.66 µM
IC50 [2]: 9.32 µM

CCCc1c(OC)ccc(C(=O)c2ccccc2O)c1O [Example 3, (2-Hydroxy-4-methoxy-3-propylphenyl)(2-hydroxyphenyl)methanone]
IC50 [1, 3]: 1.05 µM
IC50 [2]: 4.89 µM

CCCc1c(OC(C)=O)ccc(C(=O)c2ccccc2OC(C)=O)c1O [Example 6, [4-(Acetyloxy)-2-hydroxy-3-propylphenyl][2(acetyloxy)phenyl]methanone]
IC50 [1, 3]: 11.2 µM
inhibition at 30 µg/mL [2]: 12%

CCCc1cc(C(=O)c2ccccc2O)c(O)c(CCC)c1O [Example 7, (2,4-Dihydroxy-3,5-dipropylphenyl)(2-hydroxyphenyl)methanone]
IC50 [1, 3]: 63.6 µM
IC50 [2]: 17.5 µM

CCCc1c(O)ccc(C(=O)c2ccccc2Cl)c1O [Example 10, (2-Chlorophenyl)(2,4-dihydroxy-3-propylphenyl)methanone]
IC50 [1, 3]: 17.2 µM
inhibition at 30 µg/mL [2]: 100%

CCCc1c(OCC#N)ccc(C(=O)c2ccccc2O)c1O [Example 12]
IC50 [1, 3]: 22.5 µM
IC50 [2]: 32.1 µM

CCCc1c(OCCCCCC#N)ccc(C(=O)c2ccccc2O)c1O [Example 13, 6-[3-Hydroxy-4-(2-hydroxybenzoyl)-2-propylphenoxy]hexanenitrile]
IC50 [1, 3]: 5.44 µM
inhibition at 30 µg/mL [2]: 40%

CCCc1c(OCCCCCCC#N)ccc(C(=O)c2ccccc2O)c1O [Example 14, 7-[3-Hydroxy-4-(2-hydroxybenzoyl)-2-propylphenoxy]heptanenitrile]
IC50 [1, 3]: 0.524 µM
inhibition at 30 µg/mL [2]: 37%

CCCc1c(OCc2ccc(C#N)cc2)ccc(C(=O)c2ccccc2O)c1O [Example 17, 4-([3-Hydroxy-4-(2-hydroxybenzoyl)-2-propylphenoxy]methyl)benzonitrile]
inhibition at 30 µg/mL [1]: 94%
inhibition at 30 µg/mL [2]: 48%

CCCc1c(OCCCCC#N)ccc(C(=O)c2ccccc2OC)c1O [Example 18, 5-[3-Hydroxy-4-(2-methoxybenzoyl)-2-propylphenoxy]pentanenitrile]
IC50 [1, 3]: 21.8 µM
inhibition at 30 µg/mL [2]: 15%

CCCc1c(OCCCCC#N)ccc(C(=O)c2ccccc2OC)c1OC [Example 19, 5-[3-Methoxy-4-(2-methoxybenzoyl)-2-propylphenoxy]pentanenitrile]
IC50 [1, 3]: 26.2 µM
inhibition at 30 µg/mL [2]: 9%

C=C(c1ccccc1OC)c1ccc(OCCCCC#N)c(CCC)c1OC [Example 20, 5-(3-Methoxy-4-[1-(2-methoxyphenyl)ethenyl]2-propylphenoxy)pentanenitrile]
IC50 [1, 3]: 79.1 µM

CCCc1c(OCc2nnn[nH]2)ccc(C(=O)c2ccccc2O)c1O [Example 21, (2-Hydroxyphenyl)[2-hydroxy-3-propyl-4-(1H-tetrazol-5-ylmethoxy)phenyl]methanone]
inhibition at 30 µg/mL [1]: 0%
inhibition at 30 µg/mL [2]: 0%

CCCc1c(OCc2ccc(-c3nnn[nH]3)cc2)ccc(C(=O)c2ccccc2O)c1O [Example 22, (2-Hydroxyphenyl)[2-hydroxy-3-propyl-4([4-(1H-tetrazol-5-yl)phenyl]methoxy)phenyl]methanone]
IC50 [1, 3]: 9.29 µM
IC50 [2]: 32.5 µM

CCCc1c(OCCCCCc2nnn[nH]2)ccc(C(=O)c2ccccc2O)c1O [Example 24, (2-Hydroxyphenyl)[2-hydroxy-3-propyl-4-([5-(1H-tetrazol-5-yl)pentyl]oxy)phenyl]methanone]
IC50 [1, 3]: 29.2 µM

CCCc1c(OCCCc2nnn[nH]2)ccc(C(=O)c2ccccc2O)c1O [Example 27, (2-Hydroxyphenyl)(2-hydroxy-3-propyl-4-[3-(1H-tetrazol-5-yl)propoxy]phenyl)methanone]
IC50 [1, 3]: 10.5 µM
inhibition at 30 µg/mL [2]: 15%

CCCc1c(OCCCCc2nnn[nH]2)ccc(C(=O)c2ccccc2OC)c1OC [Example 29, (2-Methoxyphenyl)(2-methoxy-3-propyl-4-[4-(1H-tetrazol-5-yl)butoxy]phenyl)methanone]
IC50 [1, 3]: 14.1 µM
inhibition at 30 µg/mL [2]: < 5%

CCCc1c(OCCCCc2nnn(C)n2)ccc(C(=O)c2ccccc2OC)c1O [Example 32, (2-Hydroxy-4-[4-(2-methyl-2H-tetrazol-5yl)butoxy]-3-propylphenyl)(2-methoxyphenyl)methanone]
IC50 [1, 3]: 0.471 µM

(2,3-Dihydro-4-hydroxy-2-methyl-7-benzofuranyl)(2-hydroxyphenyl)methanone [Example 8]
IC50 5-LPO (inhibition of 5-HETE formation) [1, 3]: 8 µg/mL
